SMILES strings stand for the structures.

The values below come from patent US8829014B2, “Thiazole and thiophene analogues, and their use in treating autoimmune diseases and cancers” (Board of Supervisors of Louisiana State University and …, priority 2006, dated 2014).

Data set [1] deals with carageenan-induced edema. In words: Carrageenan-induced rat paw edema test (anti-inflammatory activity). Conditions: Rattus norvegicus, po, 3 h, carrageenan-induced rat paw edema; defined in Example 397; read-out: % Protection. In kind it is in vivo, Sprague-Dawley rats. The procedure, abridged:
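Sprague-Dawley rats (male and female, 150-250 g), fasted 18 h, given compound orally at 50 mg/kg in 0.1% sodium CMC (alternatively i.v., s.c. or i.p.). 1% carrageenan injected sub-plantar in right hind paw 1 h later. Paw displacement read again 3 h later; % protection = [(Control−Test)/Control]×100 versus saline control.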
A general note: In the carrageenan paw model, swelling and tenderness develop within hours.

Data set [2] has as its system NF-κB. Description: NF-κB inhibitor screen: basal NF-κB-dependent luciferase expression in HEK/NF-κB cell line. In kind it is cell-based. Conditions: 1 uM; determined as described in Example 398; read-out: NFkB inhibition @ 1 uM. The gist of the method:
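HEK293 cells stably carrying a luciferase reporter under six NF-κB elements were treated with compound, unstimulated, 24 h after plating. Compounds were first tested at 1.0 μM (0.3% DMSO), later at six doses from 10 to 3300 nM, in triplicate. Brite-Glo luciferase signal was normalized to DMSO, or to the lowest dose for dose-response runs.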

In data set [3] the test system is AP-1. Description: AP-1 inhibitor screen: basal AP-1-dependent luciferase expression in HEK/AP-1 cell line. In kind it is cell-based. As to conditions: AP1; 1 uM; determined as described in Example 398. The procedure, abridged:
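HEK293 cells stably carrying a luciferase reporter driven by three AP-1 elements were plated 24 hr, then given compound at 1.0 μM in 0.3% DMSO for 48 hr, in triplicate. Basal expression without stimulus was read as luminescence (Brite-Glo), normalized to DMSO; dose-response runs repeated two to four times.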

On to `CNc1nc(-c2ccccc2)c(-c2nc3ccccc3c(=O)n2-c2ccc(OC)cc2)s1` [Example 220, 2-(2-Methylamino-4-phenyl-thiazol-5-yl)-3-(4-methoxyphenyl)-3H-quinazolin-4-one], for which the melting point – broadly, the temperature, or range, at which the solid turns liquid – fell in the range of 235 to 236 °C.
Still for that read-out and setting: the same measure for `COC(=O)Nc1nc(C)c(-c2nc3ccccc3c(=O)n2-c2ccc(C(C)=O)cc2)s1` [Example 260, (4-Methyl-5-(4-oxo-3-(4-acetyl-phenyl)-3,4-dihydro-quinazolin-2-yl)-thiazol-2-yl)-carbamic acid methyl ester]: 232 to 234 °C.
On the same count and under the same terms, in the case of `CCOC(=O)Nc1nc(-c2ccccc2)c(-c2nc3ccccc3c(=O)n2-c2cccc(C)c2)s1` [Example 184, [5-(4-Oxo-3-m-tolyl-3,4-dihydro-quinazolin-2-yl)-4-phenyl-thiazol-2-yl]-carbamic acid ethyl ester] it was 261 to 263 °C; in that of `Cc1ccccc1-n1c(-c2cc(-c3ccncc3)c(N3CCOCC3)s2)nc2ccccc2c1=O` [Example 283, 2-(5-Morpholin-4-yl-4-pyridin-4-yl-thiophen-2-yl)-3-o-tolyl-3H-quinazolin-4-one], 208 to 210 °C; in that of `Cc1ccc(-n2c(-c3sc(Nc4ccccc4)nc3C)nc3ccccc3c2=O)cc1` [Example 191, 2-(4-Methyl-2-phenylamino-thiazol-5-yl)-3-p-tolyl-3H-quinazolin-4-one], 256 to 257 °C.
Same read-out and setting: the same measure for `Cc1ccccc1-n1c(-c2sc(Nc3ccccc3)nc2-c2ccccc2)nc2ccccc2c1=O` [Example 174, 3-o-Tolyl-2-(4-phenyl-2-phenylamino-thiazol-5-yl)-3H-quinazolin-4-one]: 141 to 143 °C; for `CNc1nc(-c2ccccc2)c(-c2nc3ccccc3c(=O)n2-c2ccccc2)s1` [Example 320, 2-(2-Methylamino-4-phenyl-thiazole-5-yl)-3-phenyl-3H-quinazolin-4-one]: 224 to 225 °C; for `COC(=O)Nc1nc(-c2ccccc2)c(-c2nc3ccccc3c(=O)n2-c2ccc(C)cc2)s1` [Example 194, [5-(4-Oxo-3-p-tolyl-3,4-dihydro-quinazolin-2-yl)-4-phenyl-thiazol-2-yl]-carbamic acid methyl ester]: more than 275 °C.
Compound `COC(=O)Nc1nc(-c2ccccc2)c(-c2nc3ccccc3c(=O)n2-c2ccccc2OC)s1` [Example 204, [5-(4-Oxo-3-(2-methoxyphenyl)-3,4-dihydro-quinazolin-2-yl)-4-phenyl-thiazol-2-yl]-carbamic acid methyl ester] registered a melting point of 228 to 230 °C.
In turn, `CCOC(=O)Nc1nc(C)c(-c2nc3ccccc3c(=O)n2-c2cccc(C)c2)s1` registered a melting point of 210 to 211 °C.
Still for that read-out and setting: the same measure for `Cc1cccc(-n2c(-c3sc(Nc4ccccc4)nc3-c3ccccc3)nc3ccccc3c2=O)c1` [Example 187, 3-m-Tolyl-2-(4-phenyl-2-phenylamino-thiazol-5-yl)-3H-quinazolin-4-one]: 105 to 107 °C.
`COC(=O)Nc1nc(-c2ccccc2)c(-c2nc3ccccc3c(=O)n2-c2ccc(OC)cc2)s1` [Example 219, [5-(4-Oxo-3-(4-methoxyphenyl)-3,4-dihydro-quinazolin-2-yl)-4-phenyl-thiazol-2-yl]-carbamic acid methyl ester] came in with a melting point of 272 to 274 °C.
The same measure, in the same setting: the same measure for `Cc1nc(NC(=O)c2ccco2)sc1C(=O)c1sc(NC(=O)c2ccco2)nc1C` [Example 122, Bis-[2-(2-Furoyl-amino)-4-methyl-thiazole-5-yl]-methanone]: 198 to 199 °C; for `COc1ccccc1-n1c(-c2cc(-c3ccc(Cl)cc3)c(N3CCOCC3)s2)nc2ccccc2c1=O` [Example 295, 2-[4-(4-Chlorophenyl)-5-morpholin-4-yl-thiophene-2-yl]-3-(2-methoxy-phenyl)-3H-quinazolin-4-one]: 216 to 217 °C.
The same measure, in the same setting: in the case of `Cc1cccc(-n2c(-c3cc(-c4ccc(Cl)cc4)c(N4CCOCC4)s3)nc3ccccc3c2=O)c1` [Example 285, 2-[4-(4-Chloro-phenyl)-5-morpholin-4-yl-thiophen-2-yl]-3-m-tolyl-3H-quinazolin-4-one] it was 228 to 230 °C; in that of `COc1ccccc1-n1c(-c2sc(Nc3ccccc3)nc2C)nc2ccccc2c1=O` [Example 202, 2-(4-Methyl-2-phenylamino-thiazol-5-yl)-3-(2-methoxyphenyl)-3H-quinazolin-4-one], 169 to 170 °C; in that of `Cc1cccc(-n2c(-c3cc(-c4ccccc4)c(N4CCOCC4)s3)nc3ccccc3c2=O)c1` [Example 284, 2-(5-Morpholin-4-yl-4-phenyl-thiophene-2-yl)-3-m-tolyl-3H-quinazolin-4-one], 194 to 196 °C.
With `COc1cccc(-n2c(-c3sc(Nc4ccc(Cl)cc4)nc3C)nc3ccccc3c2=O)c1` [Example 211, 2-[2-(4-Chlorophenylamino)-4-methyl-thiazol-5-yl]-3-(3-methoxyphenyl)-3H-quinazolin-4-one], the melting point was 243 to 244 °C.
`COc1ccc(-n2c(-c3sc(Nc4ccccc4)nc3C)nc3ccccc3c2=O)cc1` [Example 216, 2-(4-Methyl-2-phenylamino-thiazol-5-yl)-3-(4-methoxyphenyl)-3H-quinazolin-4-one] showed a melting point of 265 to 266 °C.
Same read-out and setting: the same measure for `CNc1nc(-c2ccccc2)c(-c2nc3ccccc3c(=O)n2-c2ccccc2C)s1` [Example 173, 2-(2-methylamino-4-phenyl-thiazol-5-yl)-3-o-tolyl-3H-quinazolin-4-one]: 220 to 225 °C; for `COC(=O)Nc1nc(C)c(-c2nc3ccccc3c(=O)n2-c2cccc(C)c2)s1`: 232 to 233 °C.
Take `CCOC(=O)Nc1nc(-c2ccccc2)c(-c2nc3ccccc3c(=O)n2-c2ccc(C(C)=O)cc2)s1` [Example 264, [5-(4-Oxo-3-(4-acetyl-phenyl)-3,4-dihydro-quinazolin-2-yl)-4-phenyl-thiazol-2-yl]-carbamic acid ethyl ester]: the inhibition in vivo at 50 mg/kg in data set [1] amounted to 40%. For the same compound, the inhibition at 1 µM in data set [2] and in data set [3] was 25% in each case.
Regarding `Cc1nc(Nc2ccc(Cl)cc2)sc1-c1nc2ccccc2c(=O)n1-c1ccccc1` [Example 158, 2-[2-(4-Chlorophenylamino)-4-methyl-thiazol-5-yl]-3-phenyl-3H-quinazolin-4-one], in data set [1], the inhibition in vivo at 50 mg/kg is 4%. The inhibition (as a rule, the change of the read-out against control, counted positive when it falls) at 1 µM in data set [2] is -9%; in data set [3], -20%.
As to `CC(=O)c1ccc(-n2c(-c3sc(Nc4ccc(Cl)cc4)nc3-c3ccccc3)nc3ccccc3c2=O)cc1` [Example 271, 2-[2-(4-Chlorophenylamino)-4-phenyl-thiazol-5-yl]-3-(4-acetyl-phenyl)-3H-quinazolin-4-one], in data set [1], the inhibition in vivo at 50 mg/kg turned out to be 23%. For the same compound, the results for the inhibition at 1 µM in data set [2] and in data set [3] were -12% and 31%, respectively.
On the same counts, the results for `Cc1ccc(-n2c(-c3sc(Nc4ccc(Cl)cc4)nc3-c3ccccc3)nc3ccccc3c2=O)cc1` [Example 200, 2-[2-(4-Chloro-phenylamino)-4-phenyl-thiazol-5-yl]-3-p-tolyl-3H-quinazolin-4-one] are 56%, -16% and 2%.
